Results on 14 compounds are retold here after ChEMBL document CHEMBL1201862, “PubChem BioAssay data set” (2004).

Some test systems named below: ACHN; HCC 2998; HCT-116; HOP-62; K562; LOX IMVI; NCI-H460; OVCAR-3; OVCAR-4; OVCAR-5; RPMI-8226; SF-268; SF-295; SK-MEL-5; SNB-19; UO-31.
What all share (assay): NCI-60 cell line screen, 48 h

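Where inhibition never reached the appropriate level, the endpoint shown equals the highest concentration tested. Otherwise, values were interpolated linearly from a five-concentration, 48-hour dose response in 96-well plates. At the GI50, growth is halved.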 Activity calls are given as the source filed them. Rule as the data show it: active = GI50 up to about 1.1 µM and inactive = higher.

Take `CCOC(=O)CC(=O)ON(C)C(C)=O`: the GI50 in the assay with ACHN, in the assay with HCC 2998, in the assay with HCT-116, in the assay on HOP-62, with K562 and in the assay with LOX IMVI was > 100 µM (inactive) throughout. Besides, the GI50 with NCI-H460, with OVCAR-3, in the assay with OVCAR-4, in the assay on OVCAR-5, with RPMI-8226 and in the assay with SF-268 was > 100 µM (inactive) in each case. Moreover, the GI50 in the assay on SF-295, in the assay with SK-MEL-5, in the assay on SNB-19 and with UO-31 was > 100 µM (inactive) in each case.

Consider `COc1ccc(C2Oc3cc(OC)c(OC)cc3C2CCl)cc1OC` (centres undefined), for which the GI50 in the assay with ACHN, in the assay on HCC 2998, in the assay with HCT-116, in the assay with HOP-62, in the assay on K562 and with LOX IMVI was > 100 µM (inactive) in each case. Moreover, the GI50 was > 100 µM (inactive) in the assay with NCI-H460; > 100 µM (inactive) in the assay with OVCAR-3; 41.4 µM (inactive) with OVCAR-4; > 100 µM (inactive) with OVCAR-5; > 100 µM (inactive) in the assay on RPMI-8226; > 100 µM (inactive) in the assay with SF-268. The figures for the GI50 in the assay with SK-MEL-5, with SNB-19 and with UO-31 were 34.1 µM (inactive), > 100 µM (inactive) and > 100 µM (inactive), respectively.

For `CC(C)Cc1ccc(C(C)/C=C2\CCC(CN3CCCC3)C2=O)cc1` (centres undefined), the GI50 was 11.7 µM (inactive) in the assay with ACHN; 7.08 µM (inactive) in the assay on HCC 2998; 4.13 µM (inactive) with HCT-116; 12.3 µM (inactive) in the assay with HOP-62; 3.91 µM (inactive) in the assay with K562; 2.88 µM (inactive) with LOX IMVI. Moreover, the GI50 with NCI-H460 was 17.7 µM (inactive); in the assay on OVCAR-3, 3.69 µM (inactive); in the assay with OVCAR-4, 13.3 µM (inactive); in the assay on OVCAR-5, 21.8 µM (inactive); in the assay on RPMI-8226, 1.84 µM (inactive); with SF-268, 3.98 µM (inactive). The GI50 was 16.9 µM (inactive) in the assay on SF-295, 14.8 µM (inactive) in the assay with SK-MEL-5, 12.4 µM (inactive) in the assay on SNB-19 and 15.9 µM (inactive) with UO-31.

On to `CCN(CC)CCN(C)CC(C)(C)C(=O)/C=C/c1ccccc1`, for which the GI50 in the assay with ACHN is 12.6 µM (inactive); in the assay on HCC 2998, 14.5 µM (inactive); in the assay on HOP-62, 22.1 µM (inactive); with K562, 0.0693 µM (active); in the assay with LOX IMVI it was 11 µM (inactive); in the assay on NCI-H460, 5.68 µM (inactive). Moreover, the GI50 in the assay on OVCAR-3 was 13.5 µM (inactive); in the assay on OVCAR-4, 11.4 µM (inactive); in the assay with OVCAR-5, 14 µM (inactive); with RPMI-8226 it was 4.15 µM (inactive); with SF-268 it was 12.6 µM (inactive); in the assay on SF-295 it was 15 µM (inactive). Moreover, the GI50 in the assay on SK-MEL-5 was 14.2 µM (inactive); in the assay with SNB-19, 15.1 µM (inactive); in the assay with UO-31 it was 13.4 µM (inactive).

For `Cc1cccc(NC(=O)c2c(N)[n+]([O-])c3ccccc3[n+]2[O-])c1`, the GI50 in the assay on ACHN was 16.1 µM (inactive); with HCT-116, 7.69 µM (inactive); in the assay on HOP-62, 17.1 µM (inactive); in the assay on K562, 5.68 µM (inactive); with NCI-H460, 12.9 µM (inactive); with OVCAR-3, 15.6 µM (inactive). The GI50 in the assay with OVCAR-4 was 9.98 µM (inactive); with OVCAR-5, 26.7 µM (inactive); in the assay on SF-268, 7.28 µM (inactive); in the assay on SF-295 it was 10.9 µM (inactive); in the assay on SK-MEL-5, 5.53 µM (inactive); in the assay on SNB-19, 15.8 µM (inactive). Also, in the assay with UO-31, the GI50 was 18.4 µM (inactive).

Turning to `CCOC(=O)NC(=O)c1c[nH]c(=O)[nH]c1=O`, the GI50 with ACHN, with HCC 2998, in the assay on HCT-116, in the assay with HOP-62, with K562 and in the assay with LOX IMVI was > 100 µM (inactive) throughout. Further, the GI50 in the assay with NCI-H460, in the assay with OVCAR-3, in the assay with OVCAR-4, in the assay on OVCAR-5, in the assay on RPMI-8226 and in the assay with SF-295 was > 100 µM (inactive) in each case. Besides, the GI50 in the assay with SK-MEL-5, with SNB-19 and in the assay on UO-31 was > 100 µM (inactive) in each case.

For `N=C(N)NS(=O)(=O)c1ccc(NCCc2c3ccccc3nc3ccccc23)cc1`, the GI50 in the assay on ACHN was > 100 µM (inactive); in the assay on HCC 2998 it was > 100 µM (inactive); with HCT-116, 41.9 µM (inactive); with HOP-62, > 100 µM (inactive); in the assay with K562, 51.1 µM (inactive); in the assay with LOX IMVI it was 70.1 µM (inactive). The GI50 in the assay with NCI-H460 was > 100 µM (inactive); with OVCAR-3, > 100 µM (inactive); in the assay on OVCAR-4, 1.31 µM (inactive); in the assay on OVCAR-5 it was > 100 µM (inactive); with RPMI-8226, 7.26 µM (inactive); in the assay on SF-268, > 100 µM (inactive). Moreover, the GI50 with SF-295, with SNB-19 and with UO-31 was > 100 µM (inactive) each time.

Regarding `CCC12CCCN(Cc3ccccc3)C1c1c(n(C)c3ccccc13)C(CO)C2` (centres undefined), the GI50 in the assay with HCC 2998 is 58.1 µM (inactive); in the assay with HCT-116, 14 µM (inactive); in the assay on HOP-62, 37.6 µM (inactive); in the assay on K562, 29.4 µM (inactive); in the assay on LOX IMVI it was 41.9 µM (inactive); in the assay with NCI-H460, 39.5 µM (inactive). Further, the GI50 with OVCAR-3 is 36.1 µM (inactive); in the assay on OVCAR-5, 10.5 µM (inactive); with RPMI-8226, 37.2 µM (inactive); with SF-268, 114 µM (inactive); in the assay with SF-295, 26.9 µM (inactive); in the assay on SK-MEL-5 it was 40.2 µM (inactive). For the same compound, the GI50 in the assay with SNB-19 was 55.5 µM (inactive).

Regarding `O=C(CC1(O)C(=O)Nc2c(Cl)cc(Cl)cc21)c1ccc2ccccc2c1` (centres undefined), the GI50 with ACHN is 14.4 µM (inactive); with HCC 2998 it was > 10 µM (inactive); with HOP-62, 7.83 µM (inactive); in the assay on K562 it was 3.18 µM (inactive); with LOX IMVI, 10.5 µM (inactive); in the assay with NCI-H460, 4.7 µM (inactive). Besides, the GI50 is 6.18 µM (inactive) in the assay on OVCAR-3; 13.6 µM (inactive) with OVCAR-4; 16.6 µM (inactive) in the assay with OVCAR-5; 5.22 µM (inactive) in the assay on RPMI-8226; 12.2 µM (inactive) with SF-268; 7.93 µM (inactive) in the assay with SF-295. Moreover, the GI50 with SK-MEL-5 was 6.11 µM (inactive); with SNB-19, 11.4 µM (inactive); in the assay on UO-31 it was 11.5 µM (inactive).

In the case of `CCOC(=O)C1(C)CCC(C(C(=O)O)C(=O)O)CC1=O` (centres undefined), the GI50 in the assay on ACHN, in the assay on HCC 2998, in the assay with HCT-116, in the assay on HOP-62, in the assay on LOX IMVI and in the assay on NCI-H460 was > 100 µM (inactive) throughout. The GI50 in the assay with OVCAR-3, in the assay with OVCAR-4, in the assay with OVCAR-5, with RPMI-8226, in the assay with SF-268 and in the assay on SF-295 was > 100 µM (inactive) throughout. In addition, the GI50 in the assay on SK-MEL-5, in the assay on SNB-19 and with UO-31 was > 100 µM (inactive) throughout.

Consider `COc1cc2ccc(CC#N)cc2cc1OC`, for which the GI50 in the assay on ACHN was > 100 µM (inactive); with HOP-62, > 100 µM (inactive); in the assay with K562, > 100 µM (inactive); with LOX IMVI, > 100 µM (inactive); in the assay on NCI-H460 it was > 100 µM (inactive); in the assay on OVCAR-4 it was 93.5 µM (inactive). Moreover, the GI50 in the assay with OVCAR-5 was > 100 µM (inactive); in the assay with SF-268, > 100 µM (inactive); with SF-295, > 100 µM (inactive); with SK-MEL-5, 62.1 µM (inactive); in the assay on SNB-19, > 100 µM (inactive); in the assay with UO-31 it was > 100 µM (inactive).

As to `CCCCN(CCCC)c1c([N+](=O)[O-])c(=O)nc2ccccn12`, the GI50 in the assay on ACHN was 35.2 µM (inactive); with HCT-116, 38.9 µM (inactive); in the assay on HOP-62, 32.6 µM (inactive); in the assay on K562 it was 37.2 µM (inactive); in the assay with NCI-H460 it was 24.8 µM (inactive); in the assay with OVCAR-3, 45.8 µM (inactive). For the same compound, the GI50 in the assay on OVCAR-5 is 99.3 µM (inactive); in the assay on RPMI-8226 it was 33.4 µM (inactive); in the assay on SF-268, 29.3 µM (inactive); in the assay on SK-MEL-5, 33.5 µM (inactive); with SNB-19, 72.9 µM (inactive); in the assay on UO-31 it was 45.6 µM (inactive).

For the compound `C[Si](C)(C)C(Sc1ccccc1)(Sc1ccccc1)Sc1ccccc1`, the GI50 in the assay on ACHN was 43 µM (inactive); with HCC 2998, 94 µM (inactive); in the assay with HCT-116, 60.3 µM (inactive); in the assay with K562 it was > 100 µM (inactive); in the assay on LOX IMVI, 58.5 µM (inactive); with NCI-H460, > 100 µM (inactive). The GI50 is > 100 µM (inactive) in the assay with OVCAR-4; 41.7 µM (inactive) in the assay with RPMI-8226; 76.6 µM (inactive) in the assay with SF-268; 74.1 µM (inactive) with SF-295; 67.9 µM (inactive) in the assay with SK-MEL-5; > 100 µM (inactive) with SNB-19. Moreover, the GI50 in the assay on UO-31 is > 100 µM (inactive).

`CC(=O)NC1=C(NCc2ccc(Cl)cc2)C(=O)c2ccccc2C1=O`: the GI50 was 1.84 µM (inactive) in the assay on ACHN; 27.5 µM (inactive) in the assay with HCC 2998; 3.12 µM (inactive) with HCT-116; 12.5 µM (inactive) in the assay with HOP-62; 2.46 µM (inactive) in the assay on K562; 8.2 µM (inactive) in the assay on LOX IMVI. Further, the GI50 is 10.8 µM (inactive) in the assay on NCI-H460; 6.4 µM (inactive) in the assay with OVCAR-3; 6.85 µM (inactive) in the assay on OVCAR-4; 16.5 µM (inactive) in the assay with SF-268; 13.3 µM (inactive) with SF-295; 5.46 µM (inactive) with SK-MEL-5. Moreover, the GI50 with SNB-19 was 22.6 µM (inactive); with UO-31 it was 5.15 µM (inactive).
